IC50 data for two compounds are collected here from US9187464B2, “TRPV4 antagonists” (GlaxoSmithKline Intellectual Property (No. 2) Limited, priority 2011, dated 2015).

The assay addresses T1, human TRPV4 (Homo sapiens, UniProt Q9HBA0).
T1 construct: expressed in transfected cells; host or cells: HEK-293-MSR-II cells transduced with 1% BacMam virus
As to the kind of experiment: Ligand-gated assay (Fluo4 calcium, FLIPR; inhibition of agonist-induced activation). The assay is classed as cell-based. The conditions noted are these: HEK-293-MSR-II cells transduced with BacMam human TRPV4; agonist at EC80. The method, boiled down:
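HEK-293-MSR-II cells BacMam-transduced with human TRPV4, loaded with 2 uM Fluo-4. Compound preincubated 10 min at room temperature in HBSS pH 7.4 plus 0.01% Chaps, then agonist added at its EC80. Inhibition of agonist-evoked calcium rise read on FLIPR; IC50 reported.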

T1 sequence (Q9HBA0 whole entry): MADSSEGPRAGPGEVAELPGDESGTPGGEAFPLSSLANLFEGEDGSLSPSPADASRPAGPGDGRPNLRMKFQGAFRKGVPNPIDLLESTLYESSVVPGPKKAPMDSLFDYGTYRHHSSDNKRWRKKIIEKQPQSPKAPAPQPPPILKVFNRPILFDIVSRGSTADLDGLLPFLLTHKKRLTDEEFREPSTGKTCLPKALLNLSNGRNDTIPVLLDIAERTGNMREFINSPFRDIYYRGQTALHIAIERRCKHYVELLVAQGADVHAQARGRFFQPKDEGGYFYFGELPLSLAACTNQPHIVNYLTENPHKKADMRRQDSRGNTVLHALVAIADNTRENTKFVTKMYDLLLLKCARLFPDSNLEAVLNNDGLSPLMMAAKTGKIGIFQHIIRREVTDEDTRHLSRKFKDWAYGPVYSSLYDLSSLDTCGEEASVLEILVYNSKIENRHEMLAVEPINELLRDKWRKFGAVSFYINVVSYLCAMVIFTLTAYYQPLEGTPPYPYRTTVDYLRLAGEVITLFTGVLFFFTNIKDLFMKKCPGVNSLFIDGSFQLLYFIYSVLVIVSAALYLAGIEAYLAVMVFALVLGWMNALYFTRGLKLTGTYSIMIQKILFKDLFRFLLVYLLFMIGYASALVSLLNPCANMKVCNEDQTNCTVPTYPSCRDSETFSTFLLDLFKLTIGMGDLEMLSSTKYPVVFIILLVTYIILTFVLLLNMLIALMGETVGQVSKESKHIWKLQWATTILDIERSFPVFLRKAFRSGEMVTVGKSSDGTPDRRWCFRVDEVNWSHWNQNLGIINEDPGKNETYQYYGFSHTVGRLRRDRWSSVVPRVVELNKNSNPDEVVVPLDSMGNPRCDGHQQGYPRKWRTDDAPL

Take `CC(C)(O)c1ccc(N2C[C@@]3(CCC[C@](C)(Cn4cnc5ccc(C#N)cc54)C3)OC2=O)nc1` [Example 167, 1-(((5S,7S)-3-(5-(2-hydroxypropan-2-yl)pyridin-2-yl)-7-methyl-2-oxo-1-oxa-3-azaspiro[4.5]decan-7-yl)methyl)-1H-benzo[d]imidazole-6-carbonitrile]: the IC50 was 0.1 to 10 nM. To `CC(C)(CO)c1cnc(N2C[C@@]3(CCC[C@](C)(Cn4cnc5ccc(C#N)cc54)C3)OC2=O)cn1` [Example 168, 1-(((5S,7S)-3-(5-(1-hydroxy-2-methylpropan-2-yl)pyrazin-2-yl)-7-methyl-2-oxo-1-oxa-3-azaspiro[4.5]decan-7-yl)methyl)-1H-benzo[d]imidazole-6-carbonitrile] belongs 10 to 50 nM.
